Measured values reported in ChEMBL document CHEMBL3297728, “Synthesis and antituberculosis activity of novel 5-styryl-4-(hetero)aryl-pyrimidines via combination of the Pd-catalyzed Suzuki cross-coupling and S(N)(H) reactions” (Bioorg Med Chem Lett, 2014).
≈ marks a conversion by molar mass, not a printed value.

Tests used:
[1] = tested on: Mycobacterium tuberculosis; assay: Antimycobacterial activity against Mycobacterium tuberculosis H37Rv after 10 days by microbroth dilution method; assay type: functional; conditions: 240 h
[2] = tested on: Mycobacterium avium; assay: Antimycobacterial activity against Mycobacterium avium after 10 days by microbroth dilution method; assay type: functional; conditions: 240 h
[3] = tested on: Mycolicibacter terrae; assay: Antimycobacterial activity against Mycobacterium terrae after 10 days by microbroth dilution method; assay type: functional; conditions: 240 h
[4] = Acute toxicity in mouse administered as single po dose; assay type: organism-based; conditions: in vivo
[5] = Acute toxicity in mouse administered as single ip dose; assay type: organism-based; conditions: in vivo

Structure (SMILES) | MIC [1] | MIC [2] | MIC [3] | LD50 [4] | LD50 [5]
Brc1cncnc1-c1cccs1 | 0.7 µg/mL (≈ 2.9 µM) | 0.3 µg/mL (≈ 1.24 µM) | 0.3 µg/mL (≈ 1.24 µM) | 315 mg/kg | 
Brc1cncnc1-c1ccc(-c2cccs2)s1 |  |  | 0.7 µg/mL (≈ 2.17 µM) |  | 
Brc1cncnc1-c1ccc(-c2ccccc2)s1 | 6.25 µg/mL (≈ 19.7 µM) |  |  |  | 
Brc1cncnc1-c1ccco1 | 1.5 µg/mL (≈ 6.67 µM) | 0.7 µg/mL (≈ 3.11 µM) | 0.7 µg/mL (≈ 3.11 µM) | 405 mg/kg | 
C(=C\c1cncnc1-c1cccs1)/c1ccccc1 | 12.5 µg/mL (≈ 47.3 µM) |  |  |  | 
C(=C\c1cncnc1-c1ccc(-c2ccccc2)s1)/c1ccccc1 | 12.5 µg/mL (≈ 36.7 µM) |  |  |  | 
C(=C\c1cncnc1-c1ccc(-c2cccs2)s1)/c1ccccc1 |  |  | 0.7 µg/mL (≈ 2.02 µM) |  | 
C(=C\c1cncnc1-c1ccco1)/c1ccccc1 | 6.25 µg/mL (≈ 25.2 µM) |  |  |  | 
C(=C\c1cncnc1-c1cccs1)/c1ccc(-c2ccccc2)cc1 | 12.5 µg/mL (≈ 36.7 µM) |  |  |  | 
C(=C\c1cncnc1-c1ccc(-c2ccccc2)s1)/c1ccc(-c2ccccc2)cc1 | 12.5 µg/mL (≈ 30 µM) |  |  |  | 
C(=C\c1cncnc1-c1ccc(-c2cccs2)s1)/c1ccc(-c2ccccc2)cc1 | 1.5 µg/mL (≈ 3.55 µM) | 0.7 µg/mL (≈ 1.66 µM) | 0.7 µg/mL (≈ 1.66 µM) | 78 mg/kg | 
C(=C\c1cncnc1-c1ccco1)/c1ccc(-c2ccccc2)cc1 | 12.5 µg/mL (≈ 38.5 µM) |  |  |  | 
c1csc(-c2ccncn2)c1 | 12.5 µg/mL (≈ 77.1 µM) |  |  |  | 
c1ccc(-c2ccc(-c3ccncn3)s2)cc1 | 12.5 µg/mL (≈ 52.5 µM) |  |  |  | 
c1csc(-c2ccc(-c3ccncn3)s2)c1 | 12.5 µg/mL (≈ 51.2 µM) |  |  |  | 
NNC(=O)c1ccncc1 [ISONIAZID] | 0.1 µg/mL (≈ 0.729 µM) | 0.1 µg/mL (≈ 0.729 µM) | 0.1 µg/mL (≈ 0.729 µM) | 133 mg/kg | 151 mg/kg
NC(=O)c1cnccn1 [PYRAZINAMIDE] | 12.5 µg/mL (≈ 102 µM) |  |  |  | 1680 mg/kg
